Test results taken from patent US20140364368A1, “STIMULUS RESPONSIVE NANOCOMPLEXES AND METHODS OF USE THEREOF” (MASSACHUSETTS INSTITUTE OF TECHNOLOGY, priority 2013, published 2014).

What was measured:
[1] = tested on: thrombin generation in human plasma; experiment: real-time thrombin generation assay in human plasma
Experimental: To further analyze the anticoagulant mechanism of the nanocomplexes, we performed real-time thrombin generation assays in human plasma. For this assay, varying concentrations of nanocomplexes or free heparin were added to 20 μL of control normal human plasma (Thermo Scientific). Real time thrombin generation was measured using the Technothrombin TGA kit (Technoclone) using the RD reagent according to manufacturer instructions. The fluorescence was monitored using a TECAN Infinite M200 Pro and thrombin generation was calculated using the corresponding Excel evaluation software provided by Technoclone.

mice = experiment: Tail bleeding time after tail transection; assay type: in vivo; conditions: 200 U/kg intravenously
Experimental: To assess the effect of nanocomplex administration on bleeding tail transection on mice was performed five minutes after they were treated intravenously with nanocomplexes. Specifically, mice (n=5-7 per condition) were anesthetized with isofluorane gas and administered nanocomplexes (200 U/kg, n=5), heparin (200 U/kg, n=7), or PBS control (n=5). After 5 minutes, 2 mm of distal mouse tail was removed by scalpel. Bleeding time was determined by lightly dabbing the tail with kimwipe tissues (Kimtech) until bleeding fully ceased for at least 1 minute. All experimental protocols involving animals were approved by the MIT Committee on Animal Care.

[2] = tested on: normal human control plasma; experiment: activated partial thromboplastin time (aPTT) clotting assay
Experimental: The effect of the nanocomplexes on a physiologic coagulation pathway was tested using a standard activated partial thromboplastin time (aPTT) clotting assay, which is also used to monitor heparin levels of patients. This assay measures the amount of time needed for a plasma sample to form a clot in vitro when the contact pathway of coagulation is triggered by addition of an exogenous aPTT reagent. For the assay, varying concentrations of nanocomplexes or free heparin were added to 50 μl of APTT reagent (Thermo Scientific) at 37° C. for 3 minutes. Subsequently, 50 μl of 25 mM CaCl2 (Sigma) pre-incubated at 37° C. were added to samples and clotting was monitored via absorbance at 605 nm with a SpectraMAX Plus spectrophotometer ([…]).

[3] = tested on: thromboplastin-induced model of pulmonary thromboembolism; experiment: thromboplastin-induced model of pulmonary thromboembolism; assay type: in vivo; conditions: mice
Experimental: To evaluate the ability of nanocomplexes to prevent thrombosis in vivo, a thromboplastin-induced model of pulmonary thromboembolism was utilized. […] For the pulmonary embolism assay, bovine fibrinogen (Sigma) was reacted with near-infrared fluorochromes (Vivotag-750-NHS, Perkin-Elmer) at a 2:1 fluorophore:protein molar ratio in PBS for 1 hour and purified by column centrifugation (100 kDa cutoff, Millipore) to remove unreacted fluorophores. Ampules of thromboplastin from rabbit brain (Sigma, #44213) were reconstituted with 2 mL of PBS each.
To ascertain the initial dosing ranges for the nanocomplexes, mice were dosed with thromboplastin and escalating doses of free heparin (40 U/kg, 100 U/kg and 200 U/kg heparin). Deposition of VT750-fibrin in the lungs of the mice was quantified using ex vivo infrared imaging. […] Accordingly, the dose of nanocomplexes corresponding to heparin doses of 200 U/kg was chosen for subsequent experiments.
Mice (n=5 per condition) were anesthetized with isofluorane gas and co-administered nanocomplexes (200 U/kg), free heparin (200 U/kg), or PBS control and 1 nmol of VT750-fibrinogen via tail vein injection. After 5 minutes, mice were injected with thromboplastin (2 uL/g). After 30 minutes, mice were euthanized with CO2 and the lungs were harvested and imaged on the LI-COR Odyssey Infrared Imaging System. Fibrin deposition was then quantified using ImageJ software. For histologic analysis, paraffin-embedded sections of lungs were prepared (Koch Institute Histology Core). Lungs were first fixed by incubating in 4% paraformaldehyde overnight. Hematoxylin and eosin […] staining of lung sections was used to visualize clots in the lungs.

heparin [free heparin]
reduction of ETP ([1]; 1.6 U/mL): ~80%
lag time (time to initial thrombin formation) ([1]; increasing concentrations): prolonged in a dose-dependent manner
increase of mean bleeding time over PBS control (mice): greater than 280%
mean bleeding time (mice; tail transection after 5 minutes): ~9.2 min
aPTT clotting time ([2]; 0.4 U/mL): ~44 s
aPTT clotting time relative to control ([2]; 0.4 U/mL): ~1.5 × of control
aPTT clotting time ([2]; 0.8 U/mL): ~44 s
aPTT clotting time relative to control ([2]; 0.8 U/mL): ~1.5 fold over control
aPTT clotting time ([2]; 2 U/mL): ~136 s
aPTT clotting time relative to control ([2]; 2 U/mL): ~5 fold over control
aPTT clotting time relative to control ([2]; 2 U/mL, listed as heparin): ~5 x of control
VT750-fibrin deposition in the lungs ([3]; 40 U/kg, with thromboplastin): did not significantly reduce
VT750-fibrin deposition in the lungs ([3]; 100 U/kg, with thromboplastin): did not significantly reduce
histological analysis of lung microvessels (hematoxylin and eosin) ([3]; 200 U/kg, thromboplastin 2 uL/g): largely patent
reduction of VT750-fibrin deposition in the lungs ([3]; 200 U/kg, with thromboplastin): more than two-fold
